Data from patent US10947229B2, “Dimethyl amino azetidine amides as JAK inhibitors” (THERAVANCE BIOPHARMA R&D IP, LLC, priority 2018, dated 2021).

Legend:
[1] = tested on: spontaneous periostin secretion; test: Inhibition of spontaneous periostin secretion in human 3D airway cultures from asthmatic donors; assay type: cell-based; conditions: 192 h, 8 days, 3 or 4 donors
Procedure: EpiAirway tissue cultures were obtained from Mattek (AIR-100). Cells were derived from asthmatic donors that spontaneously secrete periostin, a matricellular protein associated with Th2 mediated asthma (eosinophilic), and interleukin-6 (IL-6), an inflammatory cytokine that plays a role in both Th2 and non-Th2 related asthma. In a cell culture insert, human derived tracheal/bronchial epithelial cells were grown and differentiated on a porous membrane support, allowing an air-liquid interface with warmed culture medium below the cells and a gaseous test atmosphere above. Tissues were cultured in maintenance media ([…]) in a 37° C., 5% CO2 humidified incubator. Four donors were tested. On Day 0, tissue cultures were treated with test compounds in liquid interface at 10 μM, 1 μM and/or 0.1 μM. Compounds were diluted in dimethyl sulfoxide (DMSO, Sigma) to a final concentration of 0.1%. DMSO at 0.1% was used as a vehicle control. Tissue cultures were maintained for 8 days. Media was replaced every 2 days with fresh media containing compounds. On Day 8, supernatants were collected for analysis. […] Data is expressed as % Inhibition+/-standard deviation (±STDV). Percent inhibition was determined by compound inhibitory potency against spontaneous secretion of periostin and IL-6 compared to vehicle treated cells. […]

[2] = tested on: IL-27 induced CXCL9 secretion; test: Inhibition of IL-27 induced CXCL9 in human 3D airway cultures; assay type: cell-based; conditions: 192 h, 8 days, 4 donors
Procedure: (§1) EpiAirway tissue cultures were obtained from Mattek (AIR-100). Cultures were derived from asthmatic donors. In a cell culture insert, human derived tracheal/bronchial epithelial cells were grown and differentiated on a porous membrane support, allowing an air-liquid interface with warmed culture medium below the cells and a gaseous test atmosphere above. Tissues were cultured in maintenance media ([…]) in a 37° C., 5% CO2 humidified incubator. Four donors were tested. On Day 0, tissue cultures were treated with test compounds in liquid interface at 10 μM, 1 μM and/or 0.1 μM. Compounds were diluted in dimethyl sulfoxide (DMSO, Sigma) to a final concentration of 0.1%. DMSO at 0.1% was used as a vehicle control. […] Tissue cultures were maintained for 8 days. Media was replaced every 2 days with fresh media containing compounds and IFNγ or IL-27. On Day 8, tissue cultures and supernatants were collected for analysis. Supernatant samples were assayed for CXCL10 (IP-10) and CXCL9 (MIG) using luminex analysis (EMD Millipore). Data is expressed as % Inhibition+/-standard deviation (±STDV). Percent inhibition was determined by compound inhibitory potency against IFNγ or IL-27 induced CXCL10 or CXCL9 secretion compared to vehicle treated cells. Data is the average from 4 donors.

[3] = Lung and plasma drug concentration in the IL-13 pSTAT6 mouse model; assay type: in vivo; conditions: lung to plasma ratio at 5 hours
Procedure: Adult Balb/c mice from Harlan were used in the assay. […] Animals were placed in lateral recumbency post dose and monitored for full recovery from anesthesia before being returned to their home cage. Four hours later, animals were once again briefly anesthetized and challenged with either vehicle or IL-13 (0.03 μg total dose delivered, 50 μL total volume) via oral aspiration before being monitored for recovery from anesthesia and returned to their home cage. One hour after vehicle or IL-13 administration, whole blood and lungs were collected for both pSTAT6 detection in lung homogenates using a Perkin Elmer AlphaLISA® SureFire® Ultra™ HV p-STAT6 (Tyr641) assay kit and for total drug concentration analysis in both lung and plasma. Blood samples were centrifuged (Eppendorf centrifuge, 5804R) for 4 minutes at approximately 12,000 rpm at 4° C. to collect plasma. […] Plasma and lung levels of test compound were determined by LC-MS analysis against analytical standards constructed into a standard curve in the test matrix. A lung to plasma ratio was determined as the ratio of the lung concentration in ng/g to the plasma concentration in ng/mL at 5 hours.

[4] = tested on: IFNγ induced CXCL9 secretion; test: Inhibition of IFNγ induced CXCL9 in human 3D airway cultures; assay type: cell-based; conditions: 192 h, 8 days, 4 donors
Procedure: as §1

With `CCc1cc(O)ccc1-c1ccc2c(-c3nc4c([nH]3)CN(C(C)C)[C@H](C(=O)N3CC(N(C)C)C3)C4)n[nH]c2c1` [Compound 1, (S)-(3-(dimethylamino)azetidin-1-yl)(2-(6-(2-ethyl-4-hydroxyphenyl)-1H-indazol-3-yl)-5-isopropyl-4,5,6,7-tetrahydro-3H-imidazo[4,5-c]pyridin-6-yl)methanone] the inhibition at 1 µM ([1]; 1 μM) was 40%, the inhibition at 10 µM ([1]; 10 μM) was 62% and the inhibition at 0.1 µM ([2]; 0.1 μM) was 52%. The inhibition at 1 µM ([2]; 1 μM) was 97%, the inhibition at 10 µM ([2]; 10 μM) was 100% and the “exposure in lung versus plasma (in words)” value [3] was “significantly more exposure in the lung than exposure in plasma”. For the same compound, the inhibition at 0.1 µM ([4]; 0.1 μM) was 16%, the inhibition at 1 µM ([4]; 1 μM) was 93% and the inhibition at 10 µM ([4]; 10 μM) was 100%.
